Assay results published in publication PMC12118597 (Science Advances, 2025).
Read-outs that look alike come from different tables or passages of the source.

What was measured:
[1] = molecular target: T1, human macrodomain Targ1 (Homo sapiens, UniProt Q9Y530); test: HTRF peptide displacement assay, human Targ1; type: binding; details: HTRF binding curve, Targ1
T1 construct: Targ1_HTRF; HTRF assay; pET22b(+); His6, TEV; 1-153; made in house
T1 sequence (Q9Y530 with tags, fused parts or gaps): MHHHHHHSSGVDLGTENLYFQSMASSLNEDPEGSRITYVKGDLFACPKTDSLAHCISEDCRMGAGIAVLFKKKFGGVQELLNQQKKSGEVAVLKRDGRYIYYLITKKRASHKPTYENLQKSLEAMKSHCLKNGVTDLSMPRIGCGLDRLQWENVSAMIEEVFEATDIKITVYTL

[2] = system: Caco-2 cells
Procedure: Caco-2 cell plates were obtained commercially and were maintained for 21 days at 37°C with 5% CO2. Cells were washed with Hank’s balanced salt solution with 5 mM Hepes for 30 min before starting the experiment. Test compound solutions are prepared by diluting DMSO stock into Hank’s balanced salt solution buffer, resulting in a final DMSO concentration of 0.1%. Before the assay, cell monolayer integrity was verified by […] electrical resistance to ensure that wells have resistance above the acceptance cutoff (1 kilohm). Transport experiments were initiated by adding test compounds to the apical (75 μl) or basal (250 μl) side. Transport plates were incubated at 37°C in a humidified incubator with 5% CO2. Samples were taken from the donor and acceptor compartments after 1 hour and analyzed by liquid chromatography–tandem mass spectrometry (LC-MS/MS) using an AB Sciex API 4000 instrument coupled to a Shimadzu LC-20 AD LC Pump system. Samples were separated using a Waters Atlantis T3 dC18 reverse phase HPLC column (20 mm by 2.1 mm) at a flow rate of 0.5 ml/min. The mobile phase consisted of 0.1% formic acid in acetonitrile (solvent A) and 0.1% formic acid in water (solvent B).
Apparent permeability (Papp) values were calculated using the following equation Papp=(dQ/dt)/A/C0 where dQ/dt is the initial rate of compound transport across the cell monolayer, A is the surface area of the filter membrane, and C0 is the initial concentration of the test compound, calculated for each direction using a four-point calibration curve by LC-MS/MS.
The net flux ratio between the two directional transports was calculated by the following equation Ratio=PappB−A/PappA−B where PappB-A and PappA-B represent the apparent permeability of compounds from the basal-to-apical and apical-to-basal sides of the cellular monolayer, respectively. Recovery was calculated on the basis of the compound concentration at the end of the experiment compared to that at the beginning of the experiment, adjusted for volumes.

[3] = Microsomal stability; type: in vitro ADME, mouse; details: for CLint (mouse): intrinsic clearance from t1/2
Procedure: The assay was carried out in 96-well plates at 37°C. Reaction mixtures (25 μl) contained a final concentration of 1 μM compound, liver microsome protein (0.5 mg/ml), and 1 mM NADPH (reduced form of nicotinamide adenine dinucleotide phosphate) and/or 1 mM uridine diphosphate glucuronic acid (with alamethicin) in 100 mM potassium phosphate (pH 7.4) with 3 mM MgCl2. After 0, 15, 30, and 60 min, 150 μl of quench solution (100% acetonitrile with 0.1% formic acid) with an internal standard was transferred to each well. Reactions containing the same components, except NADPH, were prepared as the negative control.
The extent of metabolism was calculated as the disappearance of compounds compared to the 0-min time incubation.

[4] = Kinetic solubility; details: for Kinetic solubility (uM), mean: DMSO concentration 5%; for Mean solubility: phosphate-buffered saline pH 7.4, triplicate
[5] = molecular target: T2, SARS-CoV-2 NSP3 macrodomain (Mac1) (Severe acute respiratory syndrome coronavirus 2, UniProt P0DTD1); test: biochemical; type: binding
[6] = molecular target: T2, SARS-CoV-2 NSP3 macrodomain (Mac1); type: binding; details: for 1-BDC (PanDDA run, DMSO background map): event 1; for 1-BDC: PanDDA background density correction; for Refined ligand occupancy (%): crystallographic refinement; for 2*(1-BDC) (%): occupancy estimate from PanDDA
[7] = Caco-2 permeability assay, compound concentration 5
[8] = Mouse microsome stability assay
[9] = HTRF binding curve, SARS-CoV-2 Mac1
[10] = SARS CoV-2 macrodomain HTRF assay, dose-response
[11] = crystal soak, 10 mM soak concentration, P43 crystal form
[12] = ligand-bound crystal structure obtained (TRUE)
[13] = site occupied in X-ray crystal structure
[14] = crystal soak concentration 10 mM
[15] = crystal soak concentration 10 mM, P43 crystals

SMILES	Hill slope [5, 9]	Hill slope [5, 10]	1-BDC [6]	Refined ligand occupancy (%) [6] [%]	X-ray crystal structure [6, 12]	2*(1-BDC) (%) [6] [%]	Binding site [6, 13]	further results
Nc1ncnc2c1ncn2[C@@H]1O[C@H](COP(=O)(O)OP(=O)(O)OC[C@H]2O[C@@H](O)[C@H](O)[C@@H]2O)[C@@H](O)[C@H]1O.[Na].[Na] [ADP-ribose, reference compound]								Hill slope [1]: 1.5
O=C(Nc1ccc(C(=O)N[C@H]2c3cccc(O)c3C[C@H]2C(=O)O)cc1)NC1CC1 [AVI-92, reference compound]								Papp, A-B (x10-6 cm/s), mean [2, 7]: 0.04 x10-6 cm/s; Papp, B-A (x10-6 cm/s), mean [2, 7]: 1.7 x10-6 cm/s; Ratio (B-A/A-B) [2, 7]: 42.50; Recover Rate (%) [2, 7]: 91%; Caco-2 ratio B-A/A-B ([2]; net flux ratio): 40.7; Mouse microsome T1/2 ([3]; 1 μM compound, 0.5 mg/ml microsome protein): > 2 h; CLint (mouse) (µl/min/mg protein), mean [3, 8]: <11.6 µl/min/mg protein; T1/2 (min), mean [3, 8]: >120 min; CLint (mouse) [3]: < 11.6 µl/min/mg protein; Kinetic solubility (uM), mean [4]: 524 µM; Mean solubility [4]: 524 µM
O=C1CCCN1Nc1ncnc2[nH]c3cc(F)ccc3c12 [AVI-219, reference compound]								Recover Rate (%) [2, 7]: 98%; T1/2 (min), mean [3, 8]: 26.1 min; CLint (mouse) [3]: 53.1 µl/min/mg protein; Kinetic solubility (uM), mean [4]: 127 µM; Mean solubility [4]: 127 µM
CC1(C)CCC(O)(CNc2ncnc3[nH]ccc23)CC1 [AVI-4310]	1.3	1.3						Hit (PanDDA run, DMSO background map) ([6]; crystal soak 10 mM): TRUE; 1-BDC (PanDDA run, DMSO background map) ([6]; crystal soak 10 mM): 0.14; Modeling comment (ligand density) ([6]; crystal soak 10 mM, PanDDA run, overall): Weak density, not modeled; Hit (PanDDA run, overall) [6, 11]: TRUE
OC1(CNc2ncnc3[nH]ccc23)CCCOC1 (centres unmarked) [AVI-4311]	1.4	1.4	0.25	50	TRUE	50	Adenosine	Hit (PanDDA run, DMSO background map) ([6]; crystal soak 10 mM): TRUE; 1-BDC (PanDDA run, DMSO background map) ([6]; crystal soak 10 mM): 0.25; Hit (PanDDA run, overall) [6, 11]: TRUE
CC1CCC(O)(CNc2ncnc3[nH]ccc23)CC1 (centres unmarked) [AVI-4312]	1.2	1.2	0.22	44	TRUE	44	Adenosine	
OC1(CNc2ncnc3[nH]ccc23)COC2CC1C2 (centres unmarked) [AVI-4313]	1.2	1.2	0.19	38	TRUE	38	Adenosine	
OC1(CNc2ncnc3[nH]ccc23)CCOCC1 [AVI-4314]	1.2	1.2	0.15	30	TRUE	30	Adenosine	
O=S1(=O)CCCC(O)(CNc2ncnc3[nH]ccc23)C1 (centres unmarked) [AVI-4317]	1.2	1.2	0.43	100	TRUE	86	Adenosine	
CN(CC1(O)CCOCC1)c1ncnc2[nH]ccc12 [AVI-4318]	1.2	1.2	0.25	50	TRUE	50	Adenosine	
OC1(CNc2ncnc3[nH]ccc23)CCSCC1 [AVI-4319]	1.2	1.2	0.16	32	TRUE	32	Adenosine	
OC1(CNc2ncnc3[nH]ccc23)CC2CCC1CC2 (centres unmarked) [AVI-4320]	1.1	1.1	0.14	28	TRUE	28	Adenosine	
OC1(CNc2ncnc3[nH]ccc23)CCCSC1 (centres unmarked) [AVI-4322]	1.3	1.3	0.21	42	TRUE	42	Adenosine	
Cc1c[nH]c2ncnc(NCC3(O)CCC(C)(C)CC3)c12 [AVI-4330]	1.3	1.3						Hit (PanDDA run, DMSO background map) [6, 14]: TRUE; 1-BDC (PanDDA run, DMSO background map) [6, 14]: 0.11; Hit (PanDDA run, overall) [6, 15]: TRUE; Modeling comment (PanDDA run, overall) [6, 15]: Weak density, not modeled
Cc1c[nH]c2ncnc(NCC3(O)CCC(C)CC3)c12 (centres unmarked) [AVI-4331]	1.2	1.2	0.27	54	TRUE	54	Adenosine	Hit (PanDDA run, overall) ([6]; crystal soak 10 mM, P43 crystal form): TRUE; Hit (PanDDA run, DMSO background map) ([6]; crystal soak 10 mM): TRUE; 1-BDC (PanDDA run, DMSO background map) ([6]; crystal soak 10 mM): 0.27; Hit (PanDDA run, DMSO background map) [6, 14]: TRUE; 1-BDC (PanDDA run, DMSO background map) [6, 14]: 0.23; Hit (PanDDA run, overall) [6, 15]: TRUE; Modeling comment (PanDDA run, overall) [6, 15]: Duplicate, not modeled
CC(C)(CO)Nc1ncnc2[nH]ccc12 [AVI-5266]	1.1	1.1	0.12	40		24		X-ray crystal structure ([6]; TRUE = crystal structure with ligand obtained): TRUE; Binding site ([6]; site of ligand in X-ray crystal structure): Adenosine
CC1(C)CCN(c2ncnc3[nH]ccc23)C(CO)C1 (centres unmarked) [AVI-5994]	1.2	1.2	0.23	46	TRUE	46	Adenosine	
O[C@H]1CC[C@H]2CCN(c3ncnc4[nH]ccc34)[C@H]21 [AVI-5997]	1.2	1.2	0.29	70	TRUE	58	Adenosine	
OCC1C=CCCN1c1ncnc2[nH]ccc12 (centres unmarked) [AVI-5998]	1.2	1.2	0.19	38	TRUE	38	Adenosine	
OCC1CC=CCN1c1ncnc2[nH]ccc12 (centres unmarked) [AVI-6002]	1.3	1.3	0.16	50	TRUE	32	Adenosine	
OC1(CNc2ncnc3[nH]ccc23)CCCCC1 [AVI-6217]	1.1	1.1	0.22	60	TRUE	44	Adenosine	
OC1CCC(O)(CNc2ncnc3[nH]ccc23)CC1 (centres unmarked) [AVI-6220]	1.3	1.3	0.07	14	TRUE	14	Adenosine	
